Where a name gives a salt, the structure may show the parent alone.
Experiments:
Na^+,K^+ -ATPase [1] = molecular target: T1, Na^+,K^+ -ATPase (Homo sapiens, UniProt P05023); experiment: displacement of the specific 3H-ouabain binding from the purified Na+,K+-ATPase receptor
T1 construct: Na^+,K^+ -ATPase receptor purified according to Jorghensen; from tissue
Source text: (§1) To test the affinity for the receptor site of the Na^+,K^+ -ATPase and the agonist or inhibitory activity on the enzyme, the following tests were used: a) displacement of the specific 3H-ouabain binding from the Na^+,K^+ -ATPase receptor purified according to Jorghensen (Jorghensen P., BBA, 1974, 356, 36) and Erdmann (Erdmann E. et al., Arzneim. Forsh., 1984, 34 (II), 1314); b) inhibition of the activity of the purified Na^+,K^+ -ATPase measured as % of hydrolysis of ^32 P-ATP in presence and in absence of the tested compound (Mall F. et al., Biochem. Pharmacol., 1984, 33, 47).

Na^+,K^+ -ATPase [2] = molecular target: T1, Na^+,K^+ -ATPase; experiment: inhibition of the activity of the purified Na+,K+-ATPase (% hydrolysis of 32P-ATP); assay type: biochemical
Source text: as §1

hypertensive MHS rats = experiment: systolic blood pressure and heart rate in hypertensive MHS rats, indirect tail-cuff method, oral; assay type: in vivo, rat (MHS); conditions: n=7, 20 mg/kg os daily for ten days, in METHOCEL 0.5% w/v; for SBP (systolic blood pressure): controls 174 +/- 5.5; for HR (heart rate): controls 378 +/- 11.0
Experimental: The ability of these compounds to lower blood pressure in adult hypertensive MHS rats was tested by the following method:
systolic blood pressure (SBP) and heart rate (HR) were measured by an indirect tail-cuff method in three-month old hypertensive MHS rats before beginning treatment (basal values). The rats were then subdivided in two groups of 7 animals each, one receiving the compound and the other, the control group, receiving only the vehicle. The compound, suspended in METHOCEL® 0.5% (w/v), for ten days, was administered daily by mouth. SBP and HR were measured daily 6 and 24 hours after the treatment. When ten-day treatment washout had been under way for at least two days, whether the treatment maintains SBP low or re-establish the basal values was verified. […]

[3] = 3H-ouabain displacement, purified Na+,K+-ATPase, read-out: Binding ^3 H-Ouab. Displacement log. IC50 (converted)
[4] = purified Na+,K+-ATPase, 32P-ATP hydrolysis, read-out: Inhibitory Activity log. IC50 (converted)

C[C@]12CC[C@H](SCC(O)CN3CCCC3)C[C@H]1CC[C@@H]1[C@@H]2CC[C@]2(C)[C@@H](C3=CC(=O)OC3)CC[C@@H]12 (stereo partly drawn) [I-e, 3β-(3-(1-Pirrolidinyl)-2-hydroxypropylthio)-5β,14α-card-20(22)-enolide]
IC50 (Na^+,K^+ -ATPase [1]; [3]): 2 µM | IC50 (Na^+,K^+ -ATPase [2]; [4]): 3.98 µM

CN(C)CCCS[C@H]1CC[C@@]2(C)[C@H](CC[C@@H]3[C@@H]2CC[C@]2(C)[C@@H](C4=CC(=O)OC4)CC[C@@H]32)C1 [I-b, 3β-(3-Dimethylaminopropylthio)-5β,14α-card-20(22)-enolide Oxalate]
IC50 (Na^+,K^+ -ATPase [1]; [3]): 1 µM | IC50 (Na^+,K^+ -ATPase [2]): 3.16 µM

C[C@]12CC[C@H](SCCN3CCCC3)C[C@H]1CC[C@@H]1[C@@H]2CC[C@]2(C)[C@@H](C3=CC(=O)OC3)CC[C@@H]12 [I-a, 3β-(2-(1-Pyrrolidinyl)ethylthio)-5β,14α-card-20(22)-enolideOxalate]
IC50 (Na^+,K^+ -ATPase [1]; [3]): 3.16 µM | IC50 (Na^+,K^+ -ATPase [2]): 5.01 µM

C[C@]12CC[C@H]3[C@@H](CC=C4C[C@@H](SCCCN)CC[C@@]43C)[C@@H]1CC[C@@H]2C1=CC(=O)OC1 [I-g, 3β-(3-Aminopropylthio)-14α-card-5,20(22)-dienolide Oxalate]
IC50 (Na^+,K^+ -ATPase [1]; [3]): 1 µM | IC50 (Na^+,K^+ -ATPase [2]; [4]): 2 µM | SBP (systolic blood pressure) (hypertensive MHS rats): 150 +/- 5.2 mm Hg | HR (heart rate) (hypertensive MHS rats): 383 +/- 9.6 beats/min.

C[C@]12CC[C@H](O)C[C@H]1CC[C@@H]1[C@@H]2CC[C@]2(C)[C@@H](C3=CC(=O)OC3)CC[C@]12O [DIGI, digitoxigenin, reference compound]
SBP (systolic blood pressure) (hypertensive MHS rats): 173 +/- 4.0 mm Hg | HR (heart rate) (hypertensive MHS rats): 380 +/- 10.0 beats/min.

C[C@]12CC[C@H]3[C@@H](CCC4=C[C@@H](SCCCN)CC[C@@]43C)[C@@H]1CC[C@@H]2C1=CC(=O)OC1 [I-f, 3β-(3-Aminopropylthio)-14α-card-4,20(22)-dienolide Oxalate]
IC50 (Na^+,K^+ -ATPase [1]; [3]): 1.26 µM | IC50 (Na^+,K^+ -ATPase [2]; [4]): 3.16 µM | SBP (systolic blood pressure) (hypertensive MHS rats): 148 +/- 5.6 mm Hg | HR (heart rate) (hypertensive MHS rats): 386 +/- 9.3 beats/min.

C[C@]12CC[C@H](SCCCN)C[C@@H]1CC[C@@H]1[C@@H]2CC[C@]2(C)[C@@H](C3=CC(=O)OC3)CC[C@@H]12 [I-h, 3β-(3-Aminopropylthio)-5α,14α-card-20(22)-enolide Oxalate]
IC50 (Na^+,K^+ -ATPase [1]): 1.58 µM | IC50 (Na^+,K^+ -ATPase [2]): 3.98 µM | SBP (systolic blood pressure) (hypertensive MHS rats): 158 +/- 5.4 mm Hg | HR (heart rate) (hypertensive MHS rats): 379 +/- 10.4 beats/min.

C[C@]12CC[C@H](SCCCN3CCNCC3)C[C@H]1CC[C@@H]1[C@@H]2CC[C@]2(C)[C@@H](C3=CC(=O)OC3)CC[C@@H]12 [I-c, 3β-(3-(1-Piperazinyl)propylthio)-5β,14α-card-20(22)-enolideDioxalate]
IC50 (Na^+,K^+ -ATPase [1]; [3]): 0.794 µM | IC50 (Na^+,K^+ -ATPase [2]): 1.58 µM | SBP (systolic blood pressure) (hypertensive MHS rats): 144 +/- 6.2 mm Hg | HR (heart rate) (hypertensive MHS rats): 390 +/- 12.0 beats/min.

C[C@]12CC[C@H](SCCCN)C[C@H]1CC[C@@H]1[C@@H]2CC[C@]2(C)[C@@H](C3=CC(=O)OC3)CC[C@@H]12 [I-d, 3β-(3-Aminopropylthio)-5β,14α-card-20(22)-enolide Oxalate]
IC50 (Na^+,K^+ -ATPase [1]): 1.26 µM | IC50 (Na^+,K^+ -ATPase [2]): 2 µM | SBP (systolic blood pressure) (hypertensive MHS rats): 154 +/- 5.2 mm Hg | HR (heart rate) (hypertensive MHS rats): 384 +/- 10.3 beats/min.

Source: patent US5489582A, “14-deoxy-14α-cardenolides 3β-thioderivatives and pharmaceutical composition comprising same for treating cardiovascular disorders” (Sigma-Tau Industrie Farmaceutiche Riuntie S.p.A, priority 1992, dated 1996)
